Measured values taken from ChEMBL document CHEMBL1201862, “PubChem BioAssay data set” (2004).
Values belong to the compound of their own block, whether it stands above or below them. Activity calls are given as the source filed them.

Experiments:
Paired box protein Pax-8 = Paired box protein Pax-8 (Homo sapiens, UniProt Q06710); test: inhibitors of PAX8-driven TPO luciferase reporter, dose response, RMG-I cells, cherry-pick (AID 687027); assay type: functional, cell-based;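 also: luciferase reporter driven by Pax8 target thyroperoxidase promoter measured by SteadyGlo luminescence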
Paired box protein Pax-8, sequence (Q06710 whole entry): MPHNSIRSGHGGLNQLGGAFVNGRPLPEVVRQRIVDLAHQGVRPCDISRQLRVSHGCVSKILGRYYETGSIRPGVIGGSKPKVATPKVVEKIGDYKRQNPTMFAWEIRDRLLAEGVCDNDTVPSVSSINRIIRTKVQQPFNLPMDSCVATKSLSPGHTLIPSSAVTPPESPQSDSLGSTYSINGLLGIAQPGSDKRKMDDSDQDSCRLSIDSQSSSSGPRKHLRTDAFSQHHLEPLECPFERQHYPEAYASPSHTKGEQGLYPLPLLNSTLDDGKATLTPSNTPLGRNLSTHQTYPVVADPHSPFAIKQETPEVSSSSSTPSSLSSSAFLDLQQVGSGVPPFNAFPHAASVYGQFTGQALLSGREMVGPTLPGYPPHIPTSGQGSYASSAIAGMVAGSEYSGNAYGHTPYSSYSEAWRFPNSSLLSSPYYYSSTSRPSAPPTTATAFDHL

[1] = inhibitors of CMV-promoter luciferase reporter, dose response, counter-screen for Pax8 inhibitor project, cell-based, HEK293, luminescence, dry powder (AID 743020); assay type: functional
[2] = non-specific cell cytotoxicity, dose response, cytotoxicity control for PAX8 inhibitor project, plate reader, dry powder samples (AID 743021); assay type: functional, cell-based
[3] = PAX2 cell-based inhibition, dose response, selectivity assay for PAX8 inhibitor project, plate reader, dry powder samples (AID 743048); assay type: functional;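 also: HEK293 cells carrying a WT1 promoter luciferase reporter driven by expressed Pax2; potency is for inhibition of Pax2 driven reporter signal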
[4] = cytotoxicity in COV362 ovarian cancer cells, dose response, cytotoxicity control for PAX8 inhibitor project, cell-based, plate reader, dry powder, SA12 (AID 743144); assay type: functional
[5] = IOSE-T80 ovarian epithelial cell cytotoxicity, dose response, cytotoxicity control for PAX8 inhibitor project, plate reader, dry powder samples (AID 743045); assay type: functional, cell-based
[6] = PAX5 activity inhibitors, dose response, selectivity assay for PAX8 inhibitor project, cell-based, plate reader, dry powder samples (AID 743047); assay type: functional;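 also: HEK293 cells carrying a Pax5 driven CD19 promoter luciferase reporter; potency of inhibitors that lower reporter luminescence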
[7] = IGROV1 ovarian cancer cell cytotoxicity, dose response, PAX8 inhibitor project, plate reader, dry powder samples (AID 743043); assay type: functional, cell-based; settings: IGROV-1
[8] = cytotoxicity in OVCAR4 cells, dose response, cytotoxicity control for PAX8 inhibitor project, cell-based, plate reader, dry powder, SA11 (AID 743150); assay type: functional; settings: OVCAR-4
[9] = cytotoxicity in COV434 cells, dose response, cytotoxicity control for PAX8 inhibitor project, cell-based, plate reader, dry powder, SA7 (AID 743145); assay type: functional
[10] = cytotoxicity in OV-90 ovarian cancer cells, dose response, PAX8 inhibitor project, cell-based, plate reader, dry powder, SA8 (AID 743149); assay type: functional
[11] = cytotoxicity in OVCAR8 ovarian cancer cells, dose response, PAX8 project, cell-based, plate reader, dry powder samples (AID 743197); assay type: functional; settings: OVCAR-8
[12] = cytotoxicity dependent on PAX8, dose response, cell-based, plate reader, dry powder (AID 743049); assay type: functional
[13] = target: T1, Scavenger receptor class B member 1 (Mus musculus, UniProt Q61009); test: inhibitors of SR-BI dependent HDL uptake, dose response, ldlA[mSR-BI] CHO cells, fluorescence plate reader, dry powder, set 9 (AID 623880); assay type: functional, cell-based
T1 sequence (Q61009 whole entry): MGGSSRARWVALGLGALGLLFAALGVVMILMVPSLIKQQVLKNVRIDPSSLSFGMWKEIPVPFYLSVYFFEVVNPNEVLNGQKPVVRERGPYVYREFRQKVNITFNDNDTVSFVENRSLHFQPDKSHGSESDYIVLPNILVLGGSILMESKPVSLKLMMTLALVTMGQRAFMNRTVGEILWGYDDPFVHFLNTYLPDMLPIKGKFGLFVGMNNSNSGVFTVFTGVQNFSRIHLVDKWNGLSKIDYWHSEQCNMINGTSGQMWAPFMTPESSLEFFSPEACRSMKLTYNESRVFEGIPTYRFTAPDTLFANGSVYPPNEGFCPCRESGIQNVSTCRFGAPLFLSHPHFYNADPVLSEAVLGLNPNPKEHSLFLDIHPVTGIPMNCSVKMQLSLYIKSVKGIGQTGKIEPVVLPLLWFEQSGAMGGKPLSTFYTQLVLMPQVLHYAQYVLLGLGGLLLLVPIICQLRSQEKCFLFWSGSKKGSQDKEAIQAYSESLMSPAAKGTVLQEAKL

[14] = target: T1, Scavenger receptor class B member 1; test: inhibitors of SR-BI-mediated HDL uptake, dose response, cell-based, ldlA[mSR-BI] CHO, DiI fluorescence, dry powder, set 10 (AID 624029); assay type: functional
HEK293 = test: HEK293T cell cytotoxicity, dose response, cytotoxicity control, ATP luminescence, cherry-pick samples (AID 687005); assay type: functional, cell-based; settings: Homo sapiens;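 also: cells exposed to compound for 48 hours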
[15] = HEK293 Cytotoxicity Assay Measured in Cell-Based System Using Plate Reader - 7071-01_Inhibitor_Dose_CherryPick_Activity_Set2.; assay type: functional
Protein Wnt-3a = Protein Wnt-3a (Mus musculus, UniProt P27467); test: SAR analysis of small molecule antagonists of Gli-SUFU in a Wnt3a luminescent reporter assay.; assay type: functional
Protein Wnt-3a, sequence (P27467 whole entry): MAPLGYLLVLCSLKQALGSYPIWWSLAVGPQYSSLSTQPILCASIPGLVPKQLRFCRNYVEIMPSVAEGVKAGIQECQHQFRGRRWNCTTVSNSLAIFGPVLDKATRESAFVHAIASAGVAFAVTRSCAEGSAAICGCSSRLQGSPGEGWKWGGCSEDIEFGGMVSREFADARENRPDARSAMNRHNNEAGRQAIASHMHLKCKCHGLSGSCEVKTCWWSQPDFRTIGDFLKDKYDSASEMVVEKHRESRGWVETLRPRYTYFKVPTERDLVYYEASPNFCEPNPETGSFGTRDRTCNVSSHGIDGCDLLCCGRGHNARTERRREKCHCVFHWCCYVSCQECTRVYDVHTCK

[16] = target: Delta-type opioid receptor (Homo sapiens, UniProt P41143); test: Late-stage results from the probe development effort to identify antagonists of OPRK1: fluorescence-based cell-based dose response OPRD1 counterscreen.; assay type: functional
Delta-type opioid receptor, sequence (P41143 whole entry): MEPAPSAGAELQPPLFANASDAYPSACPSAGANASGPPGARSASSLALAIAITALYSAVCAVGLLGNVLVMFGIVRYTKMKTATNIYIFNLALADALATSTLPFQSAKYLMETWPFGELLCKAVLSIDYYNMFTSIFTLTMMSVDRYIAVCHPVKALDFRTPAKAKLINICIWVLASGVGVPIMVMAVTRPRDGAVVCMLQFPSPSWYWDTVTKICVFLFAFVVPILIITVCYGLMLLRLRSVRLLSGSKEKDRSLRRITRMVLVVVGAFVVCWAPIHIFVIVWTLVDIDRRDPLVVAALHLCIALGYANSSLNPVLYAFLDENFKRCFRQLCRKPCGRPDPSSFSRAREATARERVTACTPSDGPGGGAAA

Mu-type opioid receptor = Mu-type opioid receptor (Homo sapiens, UniProt P35372); test: Late-stage results from the probe development effort to identify antagonists of OPRK1: luminescence-based cell-based dose response OPRM1 counterscreen.; assay type: functional
Mu-type opioid receptor, sequence (P35372 whole entry): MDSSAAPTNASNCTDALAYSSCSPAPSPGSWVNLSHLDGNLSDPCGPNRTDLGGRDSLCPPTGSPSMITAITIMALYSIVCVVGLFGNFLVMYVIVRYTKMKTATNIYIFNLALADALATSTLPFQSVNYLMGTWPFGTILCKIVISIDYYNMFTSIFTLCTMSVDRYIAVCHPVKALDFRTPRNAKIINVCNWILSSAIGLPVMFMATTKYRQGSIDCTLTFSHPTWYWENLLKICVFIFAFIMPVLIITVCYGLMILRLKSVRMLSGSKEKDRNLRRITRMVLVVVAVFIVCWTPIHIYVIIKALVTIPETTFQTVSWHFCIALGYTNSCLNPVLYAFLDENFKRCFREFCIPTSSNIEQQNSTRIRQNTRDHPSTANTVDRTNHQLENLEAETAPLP

[17] = target: Potassium channel subfamily K member 3 (Homo sapiens, UniProt O14649); test: TASK1 (KCNK3) potassium channel inhibitors, SAR follow-up, CHO cells, FluxOR thallium flux (AID 652212); assay type: functional
Potassium channel subfamily K member 3, sequence (O14649 whole entry): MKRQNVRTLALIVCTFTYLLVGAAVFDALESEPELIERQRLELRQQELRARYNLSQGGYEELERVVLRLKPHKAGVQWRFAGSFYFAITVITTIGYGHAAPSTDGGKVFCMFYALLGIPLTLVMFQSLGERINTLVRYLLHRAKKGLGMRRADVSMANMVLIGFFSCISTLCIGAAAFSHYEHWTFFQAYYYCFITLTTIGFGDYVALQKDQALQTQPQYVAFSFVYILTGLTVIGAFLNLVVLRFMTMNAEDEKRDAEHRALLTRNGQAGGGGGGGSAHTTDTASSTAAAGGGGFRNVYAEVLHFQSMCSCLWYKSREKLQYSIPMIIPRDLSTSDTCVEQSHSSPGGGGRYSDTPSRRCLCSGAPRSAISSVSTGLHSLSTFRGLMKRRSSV

[18] = A375 melanoma cell viability loss, dose response, counter-screen for MITF inhibitor project, CellTiter-Glo luminescence, dry powder, set 4 (AID 624364); assay type: functional, cell-based; settings: A-375;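 also: A375 melanoma cells are MITF independent so this is a counter screen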
[19] = A375 melanoma cell cytotoxicity, dose response, counter-screen for MITF inhibitor project, CellTiter-Glo luminescence, dry powder, set 2 (AID 624489); assay type: functional, cell-based; settings: A-375;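 also: actives are compounds lowering A375 viability meaning general cytotoxicity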

SMILES: COc1ccccc1S(=O)(=O)N(C)C[C@H]1Oc2cc(C#CCC3CCCC3)ccc2S(=O)(=O)N([C@@H](C)CO)C[C@H]1C
AC50 (Paired box protein Pax-8): 9.5 µM (active) | AC50 [1]: 55.2 µM (active) | AC50 [2]: 51.9 µM (active)

SMILES: CCCNC(=O)N(C)C[C@H]1N[C@@H](CO)[C@@H]1c1ccc(C2=CCCCC2)cc1
AC50 (Paired box protein Pax-8): 3.47 µM (active) | AC50 [3]: 8.91 µM (active) | AC50 [4]: 10.7 µM (active) | AC50 [5]: 25.9 µM (active) | AC50 [6]: > 16 µM (inactive) | AC50 [7]: 16.3 µM (active) | AC50 [8]: 6.07 µM (active) | AC50 [9]: 18.2 µM (active) | AC50 [10]: 14.5 µM (active) | AC50 [11]: 14.4 µM (active) | AC50 [12]: 10.1 µM (active)

AC50 [13]: 0.00684 µM (active) | AC50 [14]: 0.00538 µM (active)
SMILES: COCC(=O)N1CCc2cc(-c3csc(NC(=O)c4cc(OC)cc(OC)c4)n3)ccc21

SMILES: Cc1ccc(S(=O)(=O)N2CC[C@@H]3[C@H](CO)Nc4ccc(-c5ccccc5F)cc4[C@@H]32)cc1
AC50 (HEK293): 44.6 µM (active) | AC50 [15]: 44.6 µM (active)

IC50 (Protein Wnt-3a): > 21.8 µM (inactive)
SMILES: N#Cc1ccc(C(=O)Nc2cc(N3CCCCC3)ncn2)cc1

IC50 [16]: 7 µM (active) | IC50 (Mu-type opioid receptor): 4 µM (active)
SMILES: COC(=O)c1cc(Br)cnc1N1CCC(NC2CCCC2)CC1

IC50 [17]: 0.129 µM (active)
SMILES: CCOc1ccccc1NC(=O)c1cccc(NC(=O)C2CCCO2)c1 (centres undefined)

SMILES: O=C(NC1=C(N2CCCCC2)C(=O)c2ccccc2C1=O)c1ccccc1
AC50 [18]: 54.4 µM (active) | AC50 [19]: > 70 µM (inactive)
